Earlier results as cited in patent US20260124184A1, “ONCE DAILY ALDOSTERONE SYNTHASE INHIBITOR (R)-(+)-5-(P-CYANOPHENYL)-5,6,7,8-TETRAHYDROIMIDAZO[L,5-A]PYRIDINE” (priority 2022, published 2026).

Target: aldosterone synthase (Homo sapiens, UniProt P19099)
Settings: ee of (R) form ≥99%; per WO 2018/078049; cited from earlier work

Sequence of aldosterone synthase (P19099 25-503, species assumed): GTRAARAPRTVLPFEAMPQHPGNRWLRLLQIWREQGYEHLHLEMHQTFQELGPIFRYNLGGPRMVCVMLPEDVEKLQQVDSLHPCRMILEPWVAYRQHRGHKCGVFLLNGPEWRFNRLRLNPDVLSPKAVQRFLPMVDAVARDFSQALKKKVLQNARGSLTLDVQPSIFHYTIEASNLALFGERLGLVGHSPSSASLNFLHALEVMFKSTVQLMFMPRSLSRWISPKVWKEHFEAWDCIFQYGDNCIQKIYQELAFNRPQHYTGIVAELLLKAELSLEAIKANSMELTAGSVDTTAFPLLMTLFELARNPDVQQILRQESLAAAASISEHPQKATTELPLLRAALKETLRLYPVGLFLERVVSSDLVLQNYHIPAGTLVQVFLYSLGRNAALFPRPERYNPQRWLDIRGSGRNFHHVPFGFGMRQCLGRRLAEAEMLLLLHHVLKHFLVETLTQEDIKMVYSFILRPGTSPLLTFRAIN

## N#Cc1ccc([C@H]2CCCc3cncn32)cc1 [(R)-(+)-5-(p-cyanophenyl)-5,6,7,8-tetrahydroimidazo[1,5-a]pyridine]
  aldosterone synthase inhibition, potency: low nanomolar
  aldosterone synthase inhibition, selectivity: selective
